# Legend:
# [1] = tested on: lower limb ischemia-reperfusion (I/R); test: Bilateral hindlimb ischemia-reperfusion injury in rats
# Procedure: Rats were subjected to 2 hours bilateral hindlimb ischemia and 4 hours reperfusion. […] (1 mg/kg) i.v., either 10 min before ischemia or 10 min prior to reperfusion, or orally (10 mg/kg) 30 min prior to ischemia. Levels of circulating creatine kinase (CK), lactate dehydrogenase (LDH), alanine and aspartate aminotransferase (ALT/AST), creatinine, blood urea nitrogen (BUN), polymorphonuclear leukocytes (PMNs) and calcium (Ca^++) and potassium (K^+) ions were determined. These biochemical indices are known to reflect tissue or organ injury following I/R events. Other parameters measured included urinary protein levels, muscle edema and myeloperoxidase (MPO) concentrations in the lung, liver and muscle along with liver homogenate TNF-α concentrations.
# The study was performed in accordance with guidelines from the National Health & Medical Research Council of Australia, and the experimental protocol approved by the University of Queensland Animal Ethics Committee. Female Wistar rats weighing 250-300 g were fasted overnight before being anaesthetized with the i.p. injection of 6 mg/kg xylazine and 120 mg/kg ketamine. Anesthesia was maintained throughout the study by additional injections of ketamine. […] Bilateral hindlimb ischemia was then induced through the application of latex o-rings (marking rings; Hayes Veterinary Supplies, Brisbane, Australia) above the greater trochanter of each hind limb. Following 2 hours of ischemia, the latex rings were cut and removed and limbs allowed to reperfuse for 4 hours. Six experimental groups were used: • (a) sham-operated, • (b) ischemia-only, • (c) I/R-only, • (d) I/R+C5a antagonist (1 mg/kg, i.v.) administered 10 min prior to ischemia, • (e) I/R+C5a antagonist (10 mg/kg, p.o.) administered 30 min prior to ischemia, and • (f) I/R+C5a antagonist (1 mg/kg, i.v.) administered 10 min prior to reperfusion.
# All other groups underwent 2 hours of ischemia and 4 hours of reperfusion. Sham-operated, ischemia-only and I/R groups were infused with 7% ethanol/saline 10 min prior to ischemia, instead of drug. Blood was collected throughout the study from the tail vein, and serum or plasma was stored at either 4° C. or −20° C. for later biochemical assays. Urine was collected over the last hour of the study for the determination of urinary protein levels. At the completion of the experiment, rats were euthanased, and sections of the lungs, liver and gastrocnemius muscle removed and weighed for edema, neutrophil accumulation and liver TNF-α studies.
# All experimental results are expressed as means±standard error of the mean (SEM). Data analysis was performed using GraphPad Prism 3.0 software (GraphPad Software, Inc. USA). Statistical comparisons were made to sham-operated and I/R-only groups, using a one-way analysis of variance followed by a Dunnett comparison post-test analysis. Statistical significance was assessed at P<0.05.
# Circulating levels of creatine kinase (CK) were measured in serum samples taken immediately after ischemia, following 1, 2 and 3 hours reperfusion, and at the completion of the study using a […] kit (Sigma, St. Louis, USA) according to the manufacturer's instructions. Serum was also taken 10 min after tourniquet release for CK measurement in I/R-only animals. A 1:5 dilution was used for samples taken after 2 hours reperfusion.
# C5a-induced neutropenia = C5a-induced neutropenia after topical administration; type: in vivo; conditions: topical 10 mg/per rat in 50% propylene glycol and 50% distilled H2O; C5a 2 μg/kg i.v.
# Procedure: Female Wistar rats weighing between 200-250 g were used for in vivo testing of all C5a receptor antagonists. Rats were anaesthetized using the procedure described above, and transferred on to a heating pad to ensure that body temperature was maintained throughout the experiment. A catheter was inserted in the femoral vein, secured with a suture and flushed with 100 μL of heparinised saline. Rats were dosed with either the antagonist or vehicle, intravenously (1 mg kg^−1 in 200 μL saline containing 10% ethanol, 10 min prior to LPS challenge) or topically ([…] challenge) Rats were infused i.v via the femoral catheter with either LPS (1 mg kg^−1 i.v in 100 μL saline), recombinant human C5a (2 μgkg^−1 in 100 μL), or vehicle control 10 minutes after the iv administration or 60 min after topical administration, of antagonist or vehicle control. All agents infused i.v were injected over a 2 min period, and were followed with a subsequent injection of 100 μL of saline to ensure complete delivery of the drug.
# Whole blood samples (0.1 mL) were collected from the tail vein at the time of drug and LPS or C5a administration. […] The number of PMNs was counted on a haemocytometer. The number of cells at each time point was calculated as a percentage of the total number of cells at time zero, prior to complement challenge or LPS. […]
# gut ischemia-reperfusion = test: Intestinal ischemia-reperfusion injury in rats
# Procedure: Female Wistar rats (250-300 g, n=132) were fasted and given only water for 12 h prior to all experiments. Animals were anaesthetised by the intraperitoneal injection of 80 mg kg^−1 ketamine and 10 mg kg^−1 xylazine and throughout the procedure rats were placed on a heating pad to maintain normal body temperature. […] A non-traumatic occlusive device for the artery was fashioned from a silk suture looped though a length of polyethylene tubing. The SMA was occluded by applying traction to the ends of the loop. […] (1) in 5% ethanol or sterile, pyrogen-free saline in 0-2 ml volume. Infusions were made over a 2 min period. […] (1) (0.3, 1, 10 mg kg^−1) was achieved by gavage (0.2 ml saline in 25% ethanol) 60 min prior to SMA occlusion. Intestinal ischemia was induced by clamping the SMA for 30 min, after which the occlusive suture was removed, then reperfusion was monitored for another 120 min. Sham-operated rats were treated in an identical fashion, with the omission of vascular occlusion, and were infused with 0.2 ml of sterile, pyrogen-free saline or gavaged with 0.2 ml of saline in 25% ethanol. Blood samples (50 μL) were collected into heparinised Eppendorf tubes at regular intervals over the 180 min duration of the experiments for the estimation of PMN numbers. In a different series of identical experiments, whole blood was collected at regular intervals over the 180 min and allowed to clot on ice, and serum or plasma samples collected and stored at −20° C. for later measurement of tumour necrosis factor-α (TNF-α), haptoglobin (Hp) and aspartate aminotransferase (AST) concentrations. At the end of the 120 min reperfusion period, the animals were euthanased with an overdose of pentobarbital A section of the occluded ileum was removed, the lumen rinsed with saline, and the intestine was blotted dry, then weighed. Specimens were dried in an oven for 24 hours at 80° C. to obtain the tissue dry weight. Intestinal oedema was determined by assessing the wet and dry tissue weight ratio. Additionally, segments of both ischaemic and normal intestine were harvested and rinsed with saline and immediately fixed in 10% buffered formaldehyde-saline for histological studies.
# Blood (50 μL) for PMN counts was placed into heparinised tubes and then layered over an equal volume of Histopaque 1083 (Sigma, U.S.A.), PMNs were isolated and cell number counted on a haemocytometer. Concentrations of PMN's values are presented as mean percentage±SEM of the values obtained immediately prior to SMA occlusion.
# Serum TNF-α concentrations were measured using an enzyme-linked immunosorbent assay, (OptEIA, Pharmingen, USA), according to the manufacturers instructions. Concentrations of TNF-α in serum samples were determined by linear regression analysis from the standard curve.
# Plasma AST (AST/GOT; Sigma, USA) concentrations were measured according to manufacturers instructions within 48 h of collecting plasma. Plasma AST concentrations were derived from calibration curve. Results are expressed in Sigma-Franke (SF) units/ml.
# Specimens were fixed in 10% formaldehyde-saline, embedded in paraffin wax, sectioned serially, and stained with haematoxylin and eosin. Tissues were read and scored by a trained observer in a blinded fashion. The degree of intestinal tissue injury was determined using a previously described graded scale ranging from 0-8 (Chiu et al., 1970).
# [2] = I/R + 1 mg/kg i.v. pre-ischemia, 4 hours reperfusion
# [3] = I/R + 1 mg/kg i.v. pre-reperfusion, 4 hours reperfusion
# [4] = I/R + 10 mg/kg p.o. pre-ischemia, 4 hours reperfusion
# [5] = i.v. 1 mg/kg just prior to reperfusion
# [6] = prior to ischemia, i.v. 1 mg/kg or orally 10 mg/kg
smiles,measurement,setting,value
"CC(=O)N[C@@H](Cc1ccccc1)C(=O)N[C@H]1CCCNC(=O)[C@H](CCCNC(=N)N)NC(=O)[C@H](Cc2c[nH]c3ccccc23)NC(=O)[C@@H](CC2CCCCC2)NC(=O)[C@@H]2CCCN2C1=O [Compound 1, Ac-Phe-[Orn-Pro-dCha-Trp-Arg]]",Plasma Creatinine,[1]; [2],1.07 ± 0.07 mg/dL
same,Proteinuria,[1]; [2],36.4 ± 11.4 mg/dL
same,Serum BUN,[1]; [2],23.6 ± 1.6 mg/dL
same,Serum Ca++,[1]; [2],2.46 ± 0.04 mmol/L
same,Serum K+,[1]; [2],6.13 ± 0.18 mmol/L
same,Plasma Creatinine,[1]; [3],1.22 ± 0.05 mg/dL
same,Proteinuria,[1]; [3],41.2 ± 11.4 mg/dL
same,Serum BUN,[1]; [3],22.0 ± 2.2 mg/dL
same,Serum Ca++,[1]; [3],2.45 ± 0.10 mmol/L
same,Serum K+,[1]; [3],5.02 ± 0.32 mmol/L
same,Plasma Creatinine,[1]; [4],1.14 ± 0.14 mg/dL
same,Proteinuria,[1]; [4],45.8 ± 9.8 mg/dL
same,Serum BUN,[1]; [4],21.8 ± 2.1 mg/dL
same,Serum Ca++,[1]; [4],2.49 ± 0.04 mmol/L
same,Serum K+,[1]; [4],5.57 ± 0.58 mmol/L
same,"MPO activity in hindlimb muscles, lungs and liver vs I/R-only rats",[1]; all 3 drug-treated groups,significant decreases
same,circulating PMN numbers vs I/R-only rats,"[1]; all 3 drug-treated groups, 4 hours reperfusion",significantly decreased
same,adverse effects of the drug alone (changes in injury markers vs sham-operated animals),[1]; drug alone,no adverse effects
same,circulating creatine kinase (CK) levels vs I/R-only rats,[1]; [5],significant inhibition
same,circulating lactate dehydrogenase (LDH) levels vs I/R-only rats,[1]; [5],significant inhibition
same,circulating creatine kinase (CK) levels vs I/R-only rats,[1]; [6],significantly decreased levels
same,circulating lactate dehydrogenase (LDH) levels vs I/R-only rats,[1]; [6],significantly decreased levels
same,neutropaenic effects of i.v. C5a,C5a-induced neutropenia,prevent the neutropaenic effects of C5a
same,ischemia-reperfusion induced neutropenia,gut ischemia-reperfusion; 1 mg/kg i.v. and 10 mg/kg p.o.,significantly inhibited
same,gut ischemia-reperfusion induced plasma aspartate aminotransferase,"gut ischemia-reperfusion; 1 mg/kg i.v. and 1,10 mg/kg",significantly reduced
same,gut ischemia-reperfusion induced tissue damage (histopathology),"gut ischemia-reperfusion; 1 mg/kg i.v. and 1,10 mg/kg",significantly reduced
same,increase in serum haptoglobin levels,"gut ischemia-reperfusion; 1 mg/kg i.v. and 1,10 mg/kg p.o.",significantly inhibited
same,change in serum TNF-α levels,gut ischemia-reperfusion; 1 mg/kg i.v. and 1-10 mg/kg p.o.,completely inhibited
same,ischemia-reperfusion induced neutropenia,gut ischemia-reperfusion; 1 mg/kg p.o.,no inhibition

# From patent US7579432B2, “Cyclic peptides as G-protein-coupled receptor antagonists” (Promics Pty Limited, priority 2001, dated 2009)
